Measured values taken from patent publication US8362031B2, “Lonidamine analogues and treatment of polycystic kidney disease” (University of Kansas, priority 2004, dated 2013).
Entries after “also recorded” stand apart in the source; their conditions may differ.

Assays:
[1] = tested on: Male Long Evans rats; assay: In vivo antispermatogenic testing in Long Evans rats; conditions: for Mortality (25 mg/kg) / Response 25 mg/kg: 25 mg/kg single i.p. injection; for Response 25 mg/kg / Response 200 mg/kg: animals responding out of animals surviving, five days following injection; for Mortality (200 mg/kg) / Response 200 mg/kg: 200 mg/kg single i.p. injection
[2] = tested on: rats; assay: Toxicology: organs sectioned and examined after dosing; assay type: in vivo; conditions: for Toxicology: liver, lung, pancreas, spleen, heart and kidney (histology): two animals examined, findings per animal; for Kidney (histology) / Liver and Pancreas (histology): single injection, sacrificed five days after injection, per animal
Protocol: In at least two of the animals in each group, the pancreas, right kidney and part of the liver, heart, spleen, and lung were removed and evaluated for toxic effects.
The toxicology of animals receiving some of the compounds of the present invention IP and/or oral was examined. At the time of sacrifice samples of liver, pancreas, heart, lung, spleen and kidney were removed, visually inspected, and immersion fixed in Bouin's solution for a minimum of 48 hours. All organs were then sectioned and examined for evidence of necrosis, inflammation, hemorrhage, and possible tumors. The major veins in each tissue were also examined for distention, especially in the liver and pancreas, and any other abnormalities are compared to known histopathological states. In addition to the above, the heart was examined for evidence of fibrosis in the muscular walls, and to compare the thickness of the ventricular walls. The pancreas was examined mainly for calcium deposits, while the lung was checked for signs of any exudates or hemorrhage, especially in the alveolar spaces. Finally, the kidney was examined mainly for microscopic hemorrhages, tubular necrosis or alterations in the glomeruli in the cortex.
In this example, the effects of RC-MC-30 were compared with those of lonidamine in sexually mature rats. As discussed above, each of the rats (8 total) received a single injection and were sacrificed five days after injection and examined.

[3] = tested on: Salmonella Typhimurium TA 100; assay: Ames test for mutagenicity (plate assay, colony count); conditions: 48 hours at 37° C.; for Ames test (+)S9 0.1 mg/pl. / Ames test (+)S9 1 mg/pl. / Ames test (+)S9 10 mg/pl.: (+)S9 mix; for Ames test (−)S9 0.1 mg/pl. / Ames test (−)S9 1 mg/pl. / Ames test (−)S9 10 mg/pl.: (−)S9 mix

CCOC(=O)c1nn(Cc2ccc(Cl)cc2Cl)c2ccccc12 [RC-MC-156, 1-[(2,4-dichlorobenzyl)-1H-indazole]-3-carboxylic acid ethyl ester]
Mortality (25 mg/kg) [1]: 0/5 | Response 25 mg/kg [1]: 2/5 | Mortality (200 mg/kg) [1]: 0/5 | Response 200 mg/kg [1]: 4/5 | Toxicology: liver, lung, pancreas, spleen, heart and kidney (histology) ([2]; 25 mg/kg): The lung did have scattered small, hemorrhagic patches, mainly in the alveolar and terminal bronchiole regions; also recorded: The lung showed widespread hemorrhagic regions throughout the alveoli and terminal bronchioles with small hemosiderin deposits around a few smaller bronchioles | Toxicology: liver, lung, pancreas, spleen, heart and kidney (histology) ([2]; 200 mg/kg): liver, lung, pancreas, spleen, heart and kidney all appeared within normal limits; also recorded: The lung had small, scattered areas of hemorrhage mainly around the alveoli and small bronchioles; also recorded: The liver had small (4-5 cells in diameter) patches of necrosis scattered throughout the parenchyma | Ames test (+)S9 0.1 mg/pl. [3]: Pass | Ames test (+)S9 1 mg/pl. [3]: Pass | Ames test (+)S9 10 mg/pl. [3]: Pass | Ames test (−)S9 0.1 mg/pl. [3]: Pass | Ames test (−)S9 1 mg/pl. [3]: Pass | Ames test (−)S9 10 mg/pl. [3]: Pass

O=C(O)c1nn(Cc2ccc(Cl)cc2Cl)c2cc(C(F)(F)F)ccc12 [RC-MC-100, 1-(2,4-dichlorobenzyl)-6-trifluoromethyl-1H-indazole-3-carboxylic acid]
Mortality (25 mg/kg) [1]: 0/5 | Response 25 mg/kg [1]: 0/5 | Mortality (200 mg/kg) [1]: 0/5 | Response 200 mg/kg [1]: 0/5 | Clinical signs after IP injection ([2]; 200 mg/kg IP, five animals): all 5 animals tested became lethargic and ceased moving; also recorded: minor tremors in both hindlimbs which lasted approximately 30 minutes; also recorded: Two of the animals also had wet rales | Deaths after IP injection ([2]; 200 mg/kg IP, five animals): Three of the animals died 2-3 hours later | Recovery after IP injection ([2]; 200 mg/kg IP, five animals): the other two recovered and did not show any other symptoms | Ames test (+)S9 0.1 mg/pl. [3]: Pass | Ames test (+)S9 1 mg/pl. [3]: Pass | Ames test (+)S9 10 mg/pl. [3]: Pass | Ames test (−)S9 0.1 mg/pl. [3]: Pass | Ames test (−)S9 1 mg/pl. [3]: Pass | Ames test (−)S9 10 mg/pl. [3]: Pass

COC(=O)c1nn(Cc2ccc(Cl)cc2Cl)c2cccnc12 [JWS-1-110]
Mortality (25 mg/kg) [1]: 0/5 | Response 25 mg/kg [1]: 0/5 | Mortality (200 mg/kg) [1]: 0/5 | Response 200 mg/kg [1]: 0/5 | Toxicology: liver, lung, pancreas, spleen, heart and kidney (histology) ([2]; 25 mg/kg): The spleen had distended veins and necrosis in the white pulp; also recorded: The liver had distended portal veins with surrounding small patches of hepatic necrosis; also recorded: The lung contained scattered hemorrhagic areas around the alveoli and terminal bronchioles; also recorded: the spleen had distended veins and diminished amounts of white pulp containing necrotic cells | Toxicology: liver, lung, pancreas, spleen, heart and kidney (histology) ([2]; 200 mg/kg): The liver showed distended portal veins with scattered, small patches of necrosis; also recorded: The lung contained multiple hemorrhagic areas throughout the alveoli, and terminal and respiratory bronchioles; also recorded: the spleen demonstrated distended veins, and diminished white pulp with necrotic cells; also recorded: The liver had distended veins, with scattered, small patches of necrosis throughout; also recorded: The pancreas had distended veins, but no other noticeable abnormalities | Ames test (+)S9 0.1 mg/pl. [3]: Pass | Ames test (+)S9 1 mg/pl. [3]: Pass | Ames test (+)S9 10 mg/pl. [3]: Pass | Ames test (−)S9 0.1 mg/pl. [3]: Pass | Ames test (−)S9 1 mg/pl. [3]: Pass | Ames test (−)S9 10 mg/pl. [3]: Pass

COC(=O)c1nn(Cc2ccc(Cl)cc2Cl)c2ccc(OC)nc12 [JWS-1-142, 1-(2,4-dichlorobenzyl)-5-methoxy-1H-pyrazolo[4,3-b]pyridine-3-carboxylic acid methyl ester]
Mortality (25 mg/kg) [1]: 0/5 | Response 25 mg/kg [1]: 0/5 | Mortality (200 mg/kg) [1]: 0/5 | Response 200 mg/kg [1]: 0/5 | Toxicology: liver, lung, pancreas, spleen, heart and kidney (histology) ([2]; 25 mg/kg): liver, lung, pancreas, spleen, heart and kidney all appeared within normal limits | Toxicology: liver, lung, pancreas, spleen, heart and kidney (histology) ([2]; 200 mg/kg): The liver contained a small, confined cluster of lymphocytes in the parenchyma; also recorded: liver, lung, pancreas, spleen, heart and kidney all appeared within normal limits | Ames test (+)S9 0.1 mg/pl. [3]: Pass | Ames test (+)S9 1 mg/pl. [3]: Pass | Ames test (+)S9 10 mg/pl. [3]: Pass | Ames test (−)S9 0.1 mg/pl. [3]: Pass | Ames test (−)S9 1 mg/pl. [3]: Pass | Ames test (−)S9 10 mg/pl. [3]: Pass

O=C(O)/C=C/c1nn(Cc2ccc(Cl)cc2Cl)c2cc(F)ccc12 [JWS-1-170, 3-[1-(2,4-dichlorobenzyl)-6-fluoro-1H-indazol-3-yl]-acrylic acid]
Mortality (25 mg/kg) [1]: 0/5 | Response 25 mg/kg [1]: 3/5 | Mortality (200 mg/kg) [1]: 0/5 | Response 200 mg/kg [1]: 3/3 | Toxicology: liver, lung, pancreas, spleen, heart and kidney (histology) ([2]; 25 mg/kg): liver, lung, pancreas, spleen, heart and kidney that appeared within normal limits | Toxicology: liver, lung, pancreas, spleen, heart and kidney (histology) ([2]; 200 mg/kg): liver, lung, pancreas, spleen, heart and kidney all appeared within normal limits; also recorded: The liver did have moderate patches (5-10 cells in diameter) of necrosis mainly in the periportal areas | Ames test (+)S9 0.1 mg/pl. [3]: Pass | Ames test (+)S9 1 mg/pl. [3]: Pass | Ames test (+)S9 10 mg/pl. [3]: Pass | Ames test (−)S9 0.1 mg/pl. [3]: Pass | Ames test (−)S9 1 mg/pl. [3]: Pass | Ames test (−)S9 10 mg/pl. [3]: Pass

COc1ccc2c(n1)c(C(=O)O)nn2Cc1ccc(Cl)cc1Cl [JWS-1-144, 1-(2,4-dichlorobenzyl)-5-methoxy-1H-pyrazolo[4,3-b]pyridine-3-carboxylic acid]
Mortality (25 mg/kg) [1]: 0/5 | Response 25 mg/kg [1]: 0/5 | Toxicology: liver, lung, pancreas, spleen, heart and kidney (histology) ([2]; 25 mg/kg): liver, lung, pancreas, spleen, heart and kidney that appeared within normal limits | Ames test (+)S9 0.1 mg/pl. [3]: Pass | Ames test (+)S9 1 mg/pl. [3]: Pass | Ames test (+)S9 10 mg/pl. [3]: Pass | Ames test (−)S9 0.1 mg/pl. [3]: Pass | Ames test (−)S9 1 mg/pl. [3]: Pass | Ames test (−)S9 10 mg/pl. [3]: Pass

COc1ccc2c(n1)c(C(=O)NN)nn2Cc1ccc(Cl)cc1Cl [JWS-1-146, 1-(2,4-dichlorobenzyl)-5-methoxy-1H-pyrazolo[4,3-b]pyridine-3-carboxylic acid hydrazide]
Mortality (25 mg/kg) [1]: 0/5 | Response 25 mg/kg [1]: 0/5 | Toxicology: liver, lung, pancreas, spleen, heart and kidney (histology) ([2]; 25 mg/kg): liver, lung, pancreas, spleen, heart and kidney that appeared within normal limits | Ames test (+)S9 0.1 mg/pl. [3]: Pass | Ames test (+)S9 1 mg/pl. [3]: Pass | Ames test (+)S9 10 mg/pl. [3]: Pass | Ames test (−)S9 0.1 mg/pl. [3]: Pass | Ames test (−)S9 1 mg/pl. [3]: Pass | Ames test (−)S9 10 mg/pl. [3]: Pass

COC(=O)c1nn(Cc2ccc(Cl)cc2Cl)c2cc(F)ccc12 [JWS-1-158, 1-(2,4-dichlorobenzyl)-6-fluoro-1H-indazole-3-carboxylic acid methyl ester]
Mortality (25 mg/kg) [1]: 0/5 | Response 25 mg/kg [1]: 4/5 | Mortality (200 mg/kg) [1]: 0/5 | Response 200 mg/kg [1]: 5/5 | Toxicology: liver, lung, pancreas, spleen, heart and kidney (histology) ([2]; 25 mg/kg, listed as JSW-1-158): liver, lung, pancreas, spleen, heart and kidney all appeared within normal limits; also recorded: The lung had thickening of the alveolar and bronchiole walls, and scattered areas of moderate sized hemorrhaging covering several adjacent alveoli | Toxicology: liver, lung, pancreas, spleen, heart and kidney (histology) ([2]; 200 mg/kg, listed as JSW-1-158): The pancreas had areas of lymphocytic infiltrates extending from the periphery inwards between the acinar cells; also recorded: liver, lung, pancreas, spleen, heart and kidney all appeared within normal limits | Ames test (+)S9 0.1 mg/pl. [3]: Pass | Ames test (+)S9 1 mg/pl. [3]: Pass | Ames test (+)S9 10 mg/pl. [3]: Pass | Ames test (−)S9 0.1 mg/pl. [3]: Pass | Ames test (−)S9 1 mg/pl. [3]: Pass | Ames test (−)S9 10 mg/pl. [3]: Pass

COC(=O)c1nn(Cc2ccc(Cl)cc2Cl)c2ccccc12 [RC-MC-30, 1-(2,4-dichlorobenzyl)indazole-3-carboxylic acid methyl ester]
Mortality (25 mg/kg) [1]: 0/5 | Response 25 mg/kg [1]: 3/5 | Mortality (200 mg/kg) [1]: 0/5 | Response 200 mg/kg [1]: 4/5 | Kidney (histology) ([2]; Dosage 25 mg/kg): Small areas with blood | Liver and Pancreas (histology) ([2]; Dosage 25 mg/kg): Non-remarkable, | Kidney (histology) ([2]; Dosage 200 mg/kg): Patchy hemorrhagic areas, | Liver and Pancreas (histology) ([2]; Dosage 200 mg/kg): Non-remarkable, | Ames test (+)S9 0.1 mg/pl. [3]: Pass | Ames test (+)S9 1 mg/pl. [3]: Pass | Ames test (+)S9 10 mg/pl. [3]: Pass | Ames test (−)S9 0.1 mg/pl. [3]: Pass | Ames test (−)S9 1 mg/pl. [3]: Pass | Ames test (−)S9 10 mg/pl. [3]: Pass
